# Experimental data published in paper PMC3277400 (Nature Medicine, 2011).
# Biological target: TcdB (Clostridioides difficile, UniProt P18177)
# Format: biochemical
# Chain of TcdB (P18177 2-2366 limits assumed): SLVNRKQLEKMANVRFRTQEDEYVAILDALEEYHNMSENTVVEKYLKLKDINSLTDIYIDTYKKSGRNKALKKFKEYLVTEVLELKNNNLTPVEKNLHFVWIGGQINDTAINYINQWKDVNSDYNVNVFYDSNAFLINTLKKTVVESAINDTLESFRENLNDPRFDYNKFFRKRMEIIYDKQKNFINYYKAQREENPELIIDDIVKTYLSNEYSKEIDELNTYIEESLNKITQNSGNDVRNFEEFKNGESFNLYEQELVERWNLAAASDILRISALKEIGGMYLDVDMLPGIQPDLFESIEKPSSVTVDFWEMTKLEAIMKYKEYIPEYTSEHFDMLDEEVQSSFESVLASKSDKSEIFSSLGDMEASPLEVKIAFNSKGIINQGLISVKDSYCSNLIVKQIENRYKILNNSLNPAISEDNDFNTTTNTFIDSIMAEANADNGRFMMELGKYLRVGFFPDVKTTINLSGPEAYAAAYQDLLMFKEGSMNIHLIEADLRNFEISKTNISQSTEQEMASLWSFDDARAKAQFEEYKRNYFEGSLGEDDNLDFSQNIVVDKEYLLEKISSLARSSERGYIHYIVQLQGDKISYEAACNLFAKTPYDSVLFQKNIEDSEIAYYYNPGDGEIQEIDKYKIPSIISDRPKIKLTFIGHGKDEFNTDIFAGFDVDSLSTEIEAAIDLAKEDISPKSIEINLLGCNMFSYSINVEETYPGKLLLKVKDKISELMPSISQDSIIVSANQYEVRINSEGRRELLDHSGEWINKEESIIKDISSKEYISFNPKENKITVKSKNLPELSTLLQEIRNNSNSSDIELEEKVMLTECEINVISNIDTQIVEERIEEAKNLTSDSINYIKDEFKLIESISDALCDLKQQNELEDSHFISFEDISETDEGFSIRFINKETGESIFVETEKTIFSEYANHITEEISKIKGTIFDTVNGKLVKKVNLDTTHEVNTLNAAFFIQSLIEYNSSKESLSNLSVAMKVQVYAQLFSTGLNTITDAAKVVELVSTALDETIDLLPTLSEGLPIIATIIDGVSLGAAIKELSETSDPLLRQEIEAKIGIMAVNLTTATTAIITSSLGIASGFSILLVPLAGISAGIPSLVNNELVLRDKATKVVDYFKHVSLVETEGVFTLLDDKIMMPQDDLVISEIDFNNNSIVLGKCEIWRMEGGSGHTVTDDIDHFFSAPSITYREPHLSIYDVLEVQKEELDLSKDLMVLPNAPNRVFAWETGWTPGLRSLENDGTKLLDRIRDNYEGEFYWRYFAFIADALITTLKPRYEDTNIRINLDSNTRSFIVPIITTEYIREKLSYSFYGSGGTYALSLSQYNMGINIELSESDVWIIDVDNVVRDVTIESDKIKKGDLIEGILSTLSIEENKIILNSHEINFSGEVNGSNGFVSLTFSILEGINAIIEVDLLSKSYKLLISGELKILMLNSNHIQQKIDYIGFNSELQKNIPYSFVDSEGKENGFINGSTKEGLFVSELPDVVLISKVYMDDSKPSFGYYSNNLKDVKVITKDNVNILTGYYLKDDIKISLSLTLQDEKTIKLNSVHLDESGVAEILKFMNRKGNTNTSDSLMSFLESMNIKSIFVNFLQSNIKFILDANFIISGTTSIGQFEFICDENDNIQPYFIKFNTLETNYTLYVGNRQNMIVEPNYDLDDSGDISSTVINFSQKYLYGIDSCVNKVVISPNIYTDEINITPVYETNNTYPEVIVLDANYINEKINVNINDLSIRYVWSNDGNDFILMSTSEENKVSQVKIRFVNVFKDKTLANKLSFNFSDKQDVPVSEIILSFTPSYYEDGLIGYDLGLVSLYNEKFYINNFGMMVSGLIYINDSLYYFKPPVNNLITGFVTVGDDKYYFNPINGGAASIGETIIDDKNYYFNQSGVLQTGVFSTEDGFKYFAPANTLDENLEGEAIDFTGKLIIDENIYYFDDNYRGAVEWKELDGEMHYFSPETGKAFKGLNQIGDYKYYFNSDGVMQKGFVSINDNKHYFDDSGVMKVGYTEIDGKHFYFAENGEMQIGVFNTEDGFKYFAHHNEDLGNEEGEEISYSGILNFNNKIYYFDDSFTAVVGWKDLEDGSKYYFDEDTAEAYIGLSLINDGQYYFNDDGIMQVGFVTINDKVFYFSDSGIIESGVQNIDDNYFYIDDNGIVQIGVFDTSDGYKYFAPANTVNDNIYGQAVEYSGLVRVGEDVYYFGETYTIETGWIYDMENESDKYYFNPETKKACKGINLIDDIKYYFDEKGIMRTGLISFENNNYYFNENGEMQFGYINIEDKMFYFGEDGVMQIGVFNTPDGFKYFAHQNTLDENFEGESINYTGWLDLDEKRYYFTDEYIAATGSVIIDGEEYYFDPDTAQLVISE
smiles,measurement,value
O=P(O)(O)O[C@H]1[C@H](OP(=O)(O)O)[C@@H](OP(=O)(O)O)[C@H](OP(=O)(O)O)[C@@H](OP(=O)(O)O)[C@H]1OP(=O)(O)O [InsP6],"InsP6-induced autocleavage, gel and immunoblot",Autocleavage of native TcdB versus E743A mutant with increasing InsP6 concentrations
